# Read-outs that look alike come from different tables or passages of the source.
# Experiments:
# ICR strain mice = test: Acute toxicity, gavage administration; format: in vivo, mouse (ICR strain); conditions: 2.5 g/kg twice a day, 14 days monitoring
# Method: The acute toxicity tests were assessed for two administration routes, through gavage and subcutaneous injection.
# Thus, the acute toxicity test was conducted in twenty ICR strain mice, weighing 18–20 g. The Sample was given through gavage at dosage of 2.5 g/kg, twice a day. Continuous monitoring was made for 14 days.
# [1] = test system: B16 mouse melanoma cell line; test: In vitro anti-cancer efficacy, B16, SRB method, 48 hours; format: cell-based; conditions: for IC50 / IC90: Mus musculus; for IC50: read-out: B16 IC50; for IC90: read-out: B16 IC90
# Method: (§1) The above compounds were dissolved in DMSO at stock concentration of 10 mg/ml and stored at 4° C. Before each experiment they were diluted to desired concentration with serum-free RPMI 1640 medium
# 2. B16 mouse melanoma cell line: B16 cells were maintained under the same condition as above. 2×10^4 cells/well were plated on 48-well plate and left for 12 hours for attachment. Cells were then treated with the test compounds and solvent control for 48 hours. Numbers of live cells were determined by SRB method. Briefly, cells were fixed with 50 μl/well 15% TCA for 1 hour, and then washed three times with double-distilled water. After drying 50 μl/well 1% SRB dye was added and reacted for 10 minutes. Plate was washed with 1% acetic acid. 0.2 ml Tris buffer (pH 9.6) was added and OD510 was recorded.
# (§2) Reagents and Methods: same as in Experiment 1.
# [2] = test system: Mouse cervical carcinoma U14; test: In vivo anti-cancer efficacy, solid tumor model; conditions: for Tumor W.: ± SD
# Text: Mouse cervical carcinoma U14 model was used to compare in vivo anti-cancer efficacy of 15-methyl-2-hexadecenoic acid, 13-methyl-tetradecanoic acid and the chemotherapy drug cytoxan (CTX).
# 40 male ICR strain mice, weighing 19–22 g, were randomly divided into 4 groups of 10 each. U14 cervical carcinoma mass (about 2 mm^3 each) was transplanted subcutaneously into the right armpits of all animals following standard procedure. The test group was given 15-methyl-2-hexadecenoic acid and 13-methyl-tetradecanoic acid at 0.4 g/kg, respectively, intragastrically (i.g.) daily for 11 days. The positive control group was given a single dose of CTX i.g. (25 mg/kg) on day 1. Negative control group was given normal saline (N.S.) at 0.2 ml/10 g daily for 11 days. On the 12th day, all mice were sacrificed and the tumors were isolated and weighed. The tumor inhibition rate (TIR) was calculated and subject to t test.
# [3] = test system: K562 human leukemia cell line; test: In vitro anti-cancer efficacy, K562, trypan blue dye exclusion, 48 hours; format: cell-based; conditions: for IC50 / IC90: Homo sapiens, K562; for IC50: read-out: K562 IC50; for IC90: read-out: K562 IC90
# Method: as §1
# 1. K562 human leukemia cell line: K562 cells were maintained in RPMI 1640 medium with 5% fetal bovine serum at 37° C. under 5% CO2 atmosphere. 4×10^4 cells/well were plated on 96-well plate. After treatment with the test compounds and solvent control (DMSO) for 48 hours, numbers of live cells were counted by trypan blue dye exclusion.
# as §2
# [4] = test system: human breast carcinoma MCF7ras; format: in vivo; conditions: for Body weight D1 / Body weight D23: MCF7ras nude mice; for Body weight D1: day 1 (baseline); for Body weight D1 / Tumor W.: X ± SD; for Body weight D23 / TIR (tumor inhibition rate, (C-T)/C percentage) / Tumor W.: day 23, test 400 mg/kg gavage daily, CTX 25 mg/kg
# Method: Thirty female Balb/c-nu/nu athymic mice, 6 weeks old, weighing 18–22 g, were housed in specific pathogen free (SPF) condition throughout the course of the experiment.
# Subcutaneous transplantation of human breast carcinoma MCF7ras was carried out under aseptic condition. Tumor mass was cut into fragments (approximately 0.18×0.18×0.20 mm in size), and injected s.c. into the right mammary fat pad of each animal with a trocar. The mice were randomized into control and test groups of ten mice each. The day after transplantation, the mice in the test group were given through gavage 13-methyl-2-tetradecenoic acid at 400 mg/kg daily. The mice in two control groups were administered with CTX at 25 mg/kg and N.S. at 0.2 ml/10 g. All animals were sacrificed on day 23. The body weights and tumor weights were measured. The tumor inhibition rates (TIR) were determined by comparing the mean tumor weight of the test groups (T) with that of the control group (C) and expressed as a (C-T)/C percentage, and were analyzed by Student's test for statistical significance.
# [5] = test system: Phagocytic Function of Reticuloendothelial System; format: in vivo, mouse (ICR strain)
# Method: 50 female ICR strain mice, weighing 19–24 g, were randomly divided into 5 groups of 10 each. One group was given N.S. at 20 ml/kg i.g. as a normal control. A positive control group was given CTX i.g. at 25 mg/kg on day 1 and 6. A third group was given N-(13-methyl-tetradecanoyl)-4amino-1,2-benzenediol (Sample) only at 400 mg/kg i. g. The remaining two groups were given both CTX (25 mg/kg on day 1 and 6) and Sample (100 mg/kg and 400 mg/kg, respectively). All treatments except CTX were administered daily for 9 days. 30 minutes after the last administration, 0.15 ml Yidege (1:10) was injected into the tail vein of each mouse. 1 minute and 5 minutes after, blood was drawn and 20 μl serum was mixed with 0.1% […]. OD680 was measured and the clearance index K=(1 gOD1–1 gOD2)/(t2−t1) was calculated.
# [6] = format: in vivo, mouse (ICR strain); conditions: single agent i.g.: Sample (N-(13-methyl-tetradecanoyl)-4-amino-1,2-benzenediol) 0.4 g/kg; CTX 25 mg/kg
# Text: The mice were sacrificed after delayed hypersensitivity test above and the thymus and […] were collected and weighed.
# Delayed Hypersensitivity = test: Delayed hypersensitivity (sheep RBC); format: in vivo, mouse (ICR strain)
# Method: 50 female ICR strain mice, weighing 18–21 g, were randomly divided into 5 groups of 10 each. The method of administration in each group was the same as above phagocytic function). However, on the 5th day after administration, each mouse was injected with 50 μl 10% sheep RBC suspension through tail vein. 4 days later (day 9), each mouse was injected intradermally with 20 μl 10 sheep RBC suspension or normal saline into metatarus of the left or right hind limbs, respectively. The digital thickness of each mouse was measured 24 hours later, and the difference in thickness between left and right digits was subject to t test analysis.
# Serum Hemolysinogenesis = format: in vivo, mouse (ICR strain)
# Method: 50 male ICR strain mice, weighing 20–23 g, were randomly divided into 5 groups of 10 each. The method of administration in each group was the same as above phagocytic function). However, on the 6th day after administration, 0.2 ml 3:5 (VN) sheep red blood cell (RBC) suspension was injected i.p. into each mouse. 4 days later (day 10), blood was drawn from all animals and serum was prepared and then diluted 600 times. 1 ml diluted serum was mixed with 0.5 ml 10% sheep RBC suspension. N.S. was used as blank control. All samples were incubated at 37° C. for 30 minutes, and centrifuged (2000 rev/min) for 5 minutes. The supernatant was collected for measurement of OD540 and HC50 was calculated.
# HAC cells = format: in vivo; conditions: for Body Weight after treatment / Extension Rate (of life span) / Survival Time: test 0.4 g/kg i.g. daily till death, 5-FU 25 mg/kg i.g. day 1, 3, 5
# Method: 30 female ICR strain mice, weighing 18–21 g, were randomly divided into 3 groups of 10 each. 0.2 ml of HAC cell suspension (10^7 cells/ml) was injected intraperitoneally (i.p.) into all animals. The test group was given 2-(12-Methyl-tridecyl)-5-mercapto-1,3,4-thiadiazole at 0.4 g/kg i.g. daily till death. The positive control group was given 5-Flurouracil (5-Fu) i.g. at 25 mg/kg on day 1, 3, and 5. The negative control group was given N.S. at 20 ml/kg daily as in test groups. The length of survival of each group was recorded and rate of extension of life span was calculated and subject to t test.
# [7] = Table 2, unit inferred, methods same as in Experiment 1
# [8] = day 12, test compounds 0.4 g/kg i.g. daily 11 days, CTX 25 mg/kg i.g. single dose
# [9] = single agent i.g.: Sample (N-(13-methyl-tetradecanoyl)-4-amino-1,2-benzenediol) 0.4 g/kg, CTX 25 mg/kg, X ± SD
compound,measurement,setting,value
15-Methyl-2-hexadecanoic acid [Compound 29],observation after gavage,ICR strain mice,No major anomaly was observed
same,LD50,ICR strain mice; mice,> 5000 mg/kg
same,B16 IC50,[1]; [7],6.8 µg/mL
same,B16 IC90,[1]; [7],10.5 µg/mL
same,TIR (tumor inhibition rate),[2]; [8],81.0%
same,Tumor W.,[2]; [8],0.50 ± 0.29 g
same,Body W. D1,"[2]; mouse, in vivo",20.6 ± 0.7 g
same,K562 IC50,[3]; [7],10.1 µg/mL
same,K562 IC90,[3]; [7],17.7 µg/mL
CC(C)CCCCCCCCCC=CC(=O)O [13-methyl-2-tetradecenoic acid],Body weight D1,[4],20.3 ± 0.5 g
same,Body weight D23,[4],24.4 ± 1.1 g
same,"TIR (tumor inhibition rate, (C-T)/C percentage)",[4],74.3%
same,Tumor W.,[4],0.47 ± 0.31 g
"O=P1(N(CCCl)CCCl)NCCCO1 (centres unmarked) [CTX, cytoxan, reference compound]",Body weight D1,[4],20.4 ± 0.4 g
same,Body weight D23,[4],18.6 ± 0.2 g
same,"TIR (tumor inhibition rate, (C-T)/C percentage)",[4],76.5%
same,Tumor W.,[4],0.43 ± 0.15 g
same,Body W. D1,"[2]; U14 mice, day 1 (baseline), X ± SD",20.6 ± 0.5 g
same,Body W. D12,"[2]; U14 mice, day 12, test compounds 0.4 g/kg i.g. daily 11 days, CTX 25 mg/kg i.g. single dose",22.6 ± 1.2 g
same,TIR (tumor inhibition rate),[2]; [8],82.5%
same,Tumor W.,[2]; [8],0.46 ± 0.17 g
same,K (clearance index of carbon grain),"[5]; single agent i.g.: Sample (N-(13-methyl-tetradecanoyl)-4-amino-1,2-benzenediol) 400 mg/kg daily 9 days, CTX 25 mg/kg day 1 and 6, X ± SD",0.0238 ± 0.0161
same,Indices of pancreas,[6],2.287 ± 1.023 mg/10 g avoirdupois
same,Indices of thymus,[6],1.387 ± 0.701 mg/10 g avoirdupois
same,Difference in thickness between left and right palm,Delayed Hypersensitivity; [9],1.25 ± 0.48 mm
same,HC50,Serum Hemolysinogenesis; [9],22.51 ± 4.30
"CC(C)CCCCCCCCCCCC(=O)Nc1ccc(O)c(O)c1 [Compound 1, N-(3,4-Dihydroxyphenyl)-13-methyl tetradecanamide]",IC50,"[1]; Table 1, 48 hours",5.12 µg/mL
same,IC90,"[1]; Table 1, 48 hours",9.28 µg/mL
same,effect on the Clearance Index of Carbon grain in normal mouse,"[5]; 400 mg/kg i.g., in words",no obvious effect
same,inhibitory effect to the delayed hypersensitivity of both normal and CTX-treated mice,Delayed Hypersensitivity; in words,no inhibitory effect
same,effects on serum hemolysinogenesis in either normal or immune-compromised mouse,Serum Hemolysinogenesis; in words,no obvious effects
same,IC50,"[3]; Table 1, 48 hours",4.98 µg/mL
same,IC90,"[3]; Table 1, 48 hours",10.1 µg/mL
"O=c1[nH]cc(F)c(=O)[nH]1 [Compound 5-FU, 5-Flurouracil, reference compound]",Body Weight after treatment,HAC cells; HAC mice,43.4 ± 12.8 g
same,Extension Rate (of life span),HAC cells; HAC mice,47.4%
same,Survival Time,"HAC cells; HAC mice, X ± SD",14.3 ± 1.5 days
same,Body Weight before treatment,"HAC cells; mouse, in vivo",19.5 ± 1.2 g
"CC(C)CCCCCCCCCCCc1nnc(S)s1 [Compound 30, 2-(12-Methyl-tridecyl)-5-mercapto-1,3,4-thiadazole]",B16 IC50,"[1]; Table 1, 48 hours",5.16 µg/mL
same,B16 IC90,"[1]; Table 1, 48 hours",8.05 µg/mL
same,Body Weight before treatment,"HAC cells; HAC mice, X ± SD",19.6 ± 1.3 g
same,Body Weight after treatment,HAC cells; HAC mice,46.5 ± 6.1 g
same,Extension Rate (of life span),HAC cells; HAC mice,72.2%
same,Survival Time,"HAC cells; HAC mice, X ± SD",16.7 ± 1.8 days
same,K562 IC50,"[3]; Table 1, 48 hours",6.10 µg/mL
same,K562 IC90,"[3]; Table 1, 48 hours",8.75 µg/mL
"CC(C)(C)CCCCCCCCCCCC(=O)O [Compound 31, 13,13-Dimethyl-tetradecanoic acid]",IC50,"[1]; Table 1, 48 hours",20.4 µg/mL
same,IC90,"[1]; Table 1, 48 hours",35.6 µg/mL
same,melting point,,37 to 39 °C
same,IC50,"[3]; Table 1, 48 hours",24.6 µg/mL
same,IC90,"[3]; Table 1, 48 hours",37.5 µg/mL

# — patent US7109364B2, “Group of anti-cancer compounds with specific structure and their production method” (priority 2000, dated 2006)
